# Assay results as given in ChEMBL document CHEMBL1201862, “PubChem BioAssay data set” (2004).
# The source made the active and inactive calls.
# Key:
# [1] = Counterscreen for inhibitors of Trypanosoma brucei methionyl tRNA synthetase (MetRS): Luminescence-based cell-based high throughput dose response assay to identify compounds that are cytotoxic to Jurkat human T lymphocyte cells.; type: functional
# [2] = biological target: T1, Methionyl-tRNA synthetase, putative (Trypanosoma brucei brucei, UniProt Q38C91); type: functional, Trypanosoma brucei brucei strain 927/4 GUTat10.1
# T1 sequence (Q38C91 whole entry): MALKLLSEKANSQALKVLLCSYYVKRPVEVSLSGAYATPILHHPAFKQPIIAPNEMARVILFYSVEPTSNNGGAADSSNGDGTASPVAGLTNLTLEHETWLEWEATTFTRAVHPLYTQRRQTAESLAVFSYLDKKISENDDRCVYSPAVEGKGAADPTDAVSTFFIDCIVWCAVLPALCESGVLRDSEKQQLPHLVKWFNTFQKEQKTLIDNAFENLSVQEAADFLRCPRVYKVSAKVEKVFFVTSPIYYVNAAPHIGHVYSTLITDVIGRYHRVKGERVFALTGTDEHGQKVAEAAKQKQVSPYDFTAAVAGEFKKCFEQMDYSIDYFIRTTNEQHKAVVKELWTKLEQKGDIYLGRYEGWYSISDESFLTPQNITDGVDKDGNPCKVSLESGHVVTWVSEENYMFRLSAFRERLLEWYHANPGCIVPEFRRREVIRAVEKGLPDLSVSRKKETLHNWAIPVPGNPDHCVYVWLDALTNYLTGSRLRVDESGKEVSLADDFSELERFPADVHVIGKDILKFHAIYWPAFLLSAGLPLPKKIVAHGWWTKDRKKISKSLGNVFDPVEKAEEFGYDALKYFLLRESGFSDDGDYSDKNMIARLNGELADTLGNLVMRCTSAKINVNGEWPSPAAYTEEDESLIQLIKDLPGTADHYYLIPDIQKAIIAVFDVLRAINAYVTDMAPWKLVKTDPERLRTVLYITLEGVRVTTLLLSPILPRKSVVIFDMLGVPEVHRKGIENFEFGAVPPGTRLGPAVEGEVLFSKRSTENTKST
# [3] = biological target: T1, Methionyl-tRNA synthetase, putative; type: functional, Trypanosoma brucei brucei strain 927/4 GUTat10.1; remark: listed apart in the source
# [4] = biological target: COUP transcription factor 2 (Homo sapiens, UniProt P24468); test: Luminescence-based cell-based high throughput dose response assay to identify inhibitors of COUP-TFII (NR2F2).; type: functional;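 further: HEK293 cells transiently cotransfected with COUP-TFII expression vector and reporter; luciferase reporter luminescence driven by COUP-TFII from the pX2-168 reporter plasmid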
# Chain of COUP transcription factor 2 (P24468 whole entry): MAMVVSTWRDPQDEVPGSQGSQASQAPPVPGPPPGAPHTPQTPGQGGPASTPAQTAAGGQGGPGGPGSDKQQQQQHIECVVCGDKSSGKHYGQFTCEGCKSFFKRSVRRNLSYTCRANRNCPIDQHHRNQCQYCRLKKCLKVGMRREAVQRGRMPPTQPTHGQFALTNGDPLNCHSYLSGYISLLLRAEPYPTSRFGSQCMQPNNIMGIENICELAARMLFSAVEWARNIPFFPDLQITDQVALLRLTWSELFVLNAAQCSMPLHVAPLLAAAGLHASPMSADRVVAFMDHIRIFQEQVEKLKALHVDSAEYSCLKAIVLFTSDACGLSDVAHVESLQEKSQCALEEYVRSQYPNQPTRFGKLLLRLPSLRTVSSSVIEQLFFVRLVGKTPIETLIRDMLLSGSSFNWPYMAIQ
# [5] = biological target: T2, Acyl-homoserine lactone acylase PvdQ (Pseudomonas aeruginosa (strain LESB58), UniProt Q9I194); test: PvdQ acylase enzyme activity blockers – biochemical, fluorescence, plate reader and imaging, cherry-picks, dose response (AID 493231)
# T2 sequence (Q9I194 whole entry): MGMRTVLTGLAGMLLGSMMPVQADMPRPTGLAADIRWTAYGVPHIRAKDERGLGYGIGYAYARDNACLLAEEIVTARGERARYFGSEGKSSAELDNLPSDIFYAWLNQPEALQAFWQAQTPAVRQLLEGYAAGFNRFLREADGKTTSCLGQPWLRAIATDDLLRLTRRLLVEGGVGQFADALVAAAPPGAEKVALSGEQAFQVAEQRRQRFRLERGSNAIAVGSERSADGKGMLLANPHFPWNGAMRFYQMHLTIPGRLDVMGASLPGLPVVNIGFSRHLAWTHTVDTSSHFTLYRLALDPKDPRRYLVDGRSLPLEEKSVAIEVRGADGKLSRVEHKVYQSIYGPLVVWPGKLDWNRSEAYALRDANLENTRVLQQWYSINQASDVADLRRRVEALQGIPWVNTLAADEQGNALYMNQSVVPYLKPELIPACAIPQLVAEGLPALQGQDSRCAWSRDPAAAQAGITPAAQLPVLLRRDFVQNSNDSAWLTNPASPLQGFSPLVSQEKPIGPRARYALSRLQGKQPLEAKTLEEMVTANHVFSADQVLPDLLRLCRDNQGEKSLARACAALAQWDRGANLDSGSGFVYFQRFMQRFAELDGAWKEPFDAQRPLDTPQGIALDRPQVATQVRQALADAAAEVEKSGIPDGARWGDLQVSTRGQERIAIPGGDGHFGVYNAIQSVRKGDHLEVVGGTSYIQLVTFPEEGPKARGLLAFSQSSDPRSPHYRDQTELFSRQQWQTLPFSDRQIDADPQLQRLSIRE
# [6] = HEK-293T viability loss after treatment – luminescence, T-cell screen hits, cytotoxicity control for TCR NF-kB inhibitor project, dose response (AID 489026); type: functional, cell-based;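 further: cells exposed to compound about 14 hours before the viability readout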
# [7] = blockers of bursicon-stimulated LGR2 cAMP reporter – cell-based, HEK293, CRE-luciferase reporter, cherry pick, set 2, dose response (AID 743343); type: functional;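 further: transfected cells were stimulated with diluted bursicon conditioned medium after compound addition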
# [8] = blockade of melanocortin 4 receptor signaling – cell-based, plate reader, cherry pick, counter-screen for LGR2 antagonist project, dose response (AID 743444); type: functional;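 further: transfected HEK 293 cells stimulated with alpha-MSH peptide; potency of inhibitors of the alpha-MSH evoked signal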
# [9] = viability loss in HEK293 cells – cell-based, plate reader, cherry-picked samples, cytotoxicity control, dose response (AID 743446); type: functional
# [10] = toxicity toward HepG2 liver cells – cell-based, plate reader, cherry-pick, antagonist series, cytotoxicity control, dose response (AID 743416); type: functional
# [11] = A549 cell cytotoxicity, dose response, cytotoxicity control, plate reader, cherry-pick, antagonist series (AID 743412); type: functional, cell-based
# [12] = biological target: T3, Heat shock factor protein 1 (Mus musculus, UniProt P38532); test: decrease of HSF1-responsive luciferase luminescence – cell-based, NIH3T3, dose retest, confirmation (AID 2382); type: functional;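 further: NIH3T3 fibroblasts with HSF1-driven luciferase reporter stressed by proteasome inhibitor MG132; luminescence from HSF1-driven luciferase expression after 8 hours of MG132 stress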
# T3 sequence (P38532 whole entry): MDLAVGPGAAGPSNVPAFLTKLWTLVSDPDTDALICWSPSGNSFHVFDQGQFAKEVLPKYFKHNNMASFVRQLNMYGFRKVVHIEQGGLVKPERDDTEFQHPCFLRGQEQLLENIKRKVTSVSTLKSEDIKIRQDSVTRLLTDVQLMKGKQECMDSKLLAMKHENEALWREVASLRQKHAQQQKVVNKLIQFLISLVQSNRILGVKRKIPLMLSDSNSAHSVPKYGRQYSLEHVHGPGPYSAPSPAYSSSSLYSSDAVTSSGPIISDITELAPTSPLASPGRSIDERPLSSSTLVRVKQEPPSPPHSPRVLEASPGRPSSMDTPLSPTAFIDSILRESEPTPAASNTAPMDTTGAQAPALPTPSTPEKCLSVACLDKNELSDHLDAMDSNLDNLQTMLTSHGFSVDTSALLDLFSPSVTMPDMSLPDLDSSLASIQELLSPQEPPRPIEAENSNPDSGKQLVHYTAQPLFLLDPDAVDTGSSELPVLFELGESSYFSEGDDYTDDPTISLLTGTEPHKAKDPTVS
# [13] = viability of uninfected HEp-2 cells – cell-based, HTS, cytotoxicity control for RSV inhibitor project, dose response (AID 2410); type: functional; conditions: human respiratory syncytial virus
# [14] = Counterscreen for activators of the function of SWI/SNF related, matrix associated, actin dependent regulator of chromatin, subfamily a, member 2 (SMARCA2, BRM): Luminescence-based cell-based high throughput dose response assay to identify non-selective compounds using the VP16 reporter assay.; type: functional
# [15] = Luminescence Cell-Based Dose Response HTS to Identify Activators of Luciferase Translation or Activity in H4 […] Cells. [Related pubchem assays: 1829 (Project Summary), 1814 (Primary HTS)]; type: functional
# [16] = biological target: SWI/SNF-related matrix-associated actin-dependent regulator of chromatin subfamily A member 2 (Homo sapiens, UniProt P51531); test: Luminescence-based cell-based high throughput dose response assay to identify activators of the function of SWI/SNF related, matrix associated, actin dependent regulator of chromatin, subfamily a, member 2 (SMARCA2, BRM).; type: functional
# Chain of SWI/SNF-related matrix-associated actin-dependent regulator of chromatin subfamily A member 2 (P51531 whole entry): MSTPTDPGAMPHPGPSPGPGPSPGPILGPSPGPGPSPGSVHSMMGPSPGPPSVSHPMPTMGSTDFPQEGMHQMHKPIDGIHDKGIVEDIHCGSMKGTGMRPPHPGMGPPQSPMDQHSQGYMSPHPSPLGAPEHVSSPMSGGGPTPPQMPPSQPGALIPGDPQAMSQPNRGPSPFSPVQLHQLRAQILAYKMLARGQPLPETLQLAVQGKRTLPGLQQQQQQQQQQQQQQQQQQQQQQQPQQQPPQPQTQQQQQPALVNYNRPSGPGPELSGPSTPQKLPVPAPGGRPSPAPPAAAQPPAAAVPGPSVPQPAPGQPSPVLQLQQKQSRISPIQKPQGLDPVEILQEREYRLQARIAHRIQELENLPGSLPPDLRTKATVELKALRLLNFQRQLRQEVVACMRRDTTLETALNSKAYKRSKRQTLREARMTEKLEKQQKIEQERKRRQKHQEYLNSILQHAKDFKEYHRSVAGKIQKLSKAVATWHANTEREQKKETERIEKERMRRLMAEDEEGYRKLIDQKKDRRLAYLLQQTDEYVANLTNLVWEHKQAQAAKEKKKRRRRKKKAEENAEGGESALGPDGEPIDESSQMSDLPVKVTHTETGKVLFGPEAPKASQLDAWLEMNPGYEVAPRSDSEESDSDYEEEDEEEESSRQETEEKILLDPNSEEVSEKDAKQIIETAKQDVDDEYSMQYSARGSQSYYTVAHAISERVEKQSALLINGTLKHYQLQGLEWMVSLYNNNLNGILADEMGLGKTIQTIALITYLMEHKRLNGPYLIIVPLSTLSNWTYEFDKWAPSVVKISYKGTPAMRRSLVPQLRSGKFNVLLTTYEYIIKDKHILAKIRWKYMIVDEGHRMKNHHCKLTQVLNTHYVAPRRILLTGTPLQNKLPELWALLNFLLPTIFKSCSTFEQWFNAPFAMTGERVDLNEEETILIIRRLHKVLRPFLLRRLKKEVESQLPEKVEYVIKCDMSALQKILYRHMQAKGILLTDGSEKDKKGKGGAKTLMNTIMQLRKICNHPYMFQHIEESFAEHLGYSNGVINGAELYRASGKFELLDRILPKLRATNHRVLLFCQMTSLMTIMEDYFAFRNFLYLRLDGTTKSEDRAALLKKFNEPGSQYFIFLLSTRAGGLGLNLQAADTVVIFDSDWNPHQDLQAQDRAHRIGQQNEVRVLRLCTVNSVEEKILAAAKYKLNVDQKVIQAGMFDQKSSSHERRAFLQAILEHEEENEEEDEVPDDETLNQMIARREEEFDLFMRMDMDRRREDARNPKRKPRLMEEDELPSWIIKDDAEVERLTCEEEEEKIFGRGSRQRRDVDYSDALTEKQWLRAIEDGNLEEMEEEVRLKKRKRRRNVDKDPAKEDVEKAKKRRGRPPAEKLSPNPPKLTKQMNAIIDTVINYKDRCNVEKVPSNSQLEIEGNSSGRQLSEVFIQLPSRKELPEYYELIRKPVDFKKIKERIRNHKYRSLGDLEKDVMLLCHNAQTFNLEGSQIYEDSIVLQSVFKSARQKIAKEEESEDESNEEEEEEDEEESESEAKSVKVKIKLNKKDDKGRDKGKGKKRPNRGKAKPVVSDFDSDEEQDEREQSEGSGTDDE
# [17] = Luminescence Cell-Based Dose Confirmation HTS to Identify Activators of 5'UTR Stem-Loop Driven Alpha-Synuclein mRNA Translation in H4 Neuroglioblastoma Cells. [Related pubchem assays: 1829 (Project Summary), 1814 (Primary HTS)]; type: functional
# H4 = test: Luminescence Cell-Based Dose Response HTS to Identify Activators of 5'UTR Stem-Loop Driven Prion Protein mRNA Translation in H4 Neuroglioblastoma Cells. [Related pubchem assays: 1829 (Project Summary), 1814 (Primary HTS)]; type: functional; conditions: Homo sapiens
# [18] = PAX8-dependent cell viability loss – plate reader, dry powder, dose response (AID 743049); type: functional, cell-based
# [19] = toxicity toward immortalized ovarian surface epithelium – cell-based, plate reader, dry powder samples, cytotoxicity control for PAX8 inhibitor project, dose response (AID 743045); type: functional
# Paired box protein Pax-8 = Paired box protein Pax-8 (Homo sapiens, UniProt Q06710); test: PAX8 transcriptional activity inhibition in RMG-I – RMG-I cells, luciferase, cherry-pick, dose response (AID 687027); type: functional, cell-based;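 further: luciferase reporter driven by Pax8 target thyroperoxidase promoter measured by SteadyGlo luminescence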
# Chain of Paired box protein Pax-8 (Q06710 whole entry): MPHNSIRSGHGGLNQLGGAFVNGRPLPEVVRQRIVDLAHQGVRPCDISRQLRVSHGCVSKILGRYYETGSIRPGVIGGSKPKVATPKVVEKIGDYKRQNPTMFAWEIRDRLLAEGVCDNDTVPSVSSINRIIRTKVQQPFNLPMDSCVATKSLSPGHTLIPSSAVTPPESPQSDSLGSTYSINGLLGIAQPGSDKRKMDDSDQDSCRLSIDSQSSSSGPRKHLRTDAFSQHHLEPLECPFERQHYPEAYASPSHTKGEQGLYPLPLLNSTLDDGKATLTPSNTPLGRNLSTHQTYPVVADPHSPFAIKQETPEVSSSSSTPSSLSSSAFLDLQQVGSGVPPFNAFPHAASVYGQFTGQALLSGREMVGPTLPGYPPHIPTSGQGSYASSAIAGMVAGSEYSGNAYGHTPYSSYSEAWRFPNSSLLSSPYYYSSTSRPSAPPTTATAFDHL
# [20] = COV434 cell viability loss – plate reader, dry powder, SA7, cytotoxicity control for PAX8 inhibitor project, dose response (AID 743145); type: functional, cell-based
# [21] = OVCAR4 cell viability loss – plate reader, dry powder, SA11, cytotoxicity control for PAX8 inhibitor project, dose response (AID 743150); type: functional, cell-based; conditions: OVCAR-4
# [22] = OV-90 cell viability loss – plate reader, dry powder, SA8, PAX8 inhibitor project, dose response (AID 743149); type: functional, cell-based
# [23] = OVCAR-3 cell viability loss – plate reader, dry powder samples, PAX8 inhibitor project, dose response (AID 743044); type: functional, cell-based
# [24] = viability loss in HeLa cells – cytotoxicity control for MgcRacGAP inhibitor project, dose response (AID 624300); type: functional
# [25] = biological target: FAD-linked sulfhydryl oxidase ALR (Homo sapiens, UniProt P55789); test: ALR-catalysed DTT oxidation blockers – biochemical, H2O2 detection, luminescence, cherry-pick, dose response (AID 493248)
# Chain of FAD-linked sulfhydryl oxidase ALR (P55789 whole entry): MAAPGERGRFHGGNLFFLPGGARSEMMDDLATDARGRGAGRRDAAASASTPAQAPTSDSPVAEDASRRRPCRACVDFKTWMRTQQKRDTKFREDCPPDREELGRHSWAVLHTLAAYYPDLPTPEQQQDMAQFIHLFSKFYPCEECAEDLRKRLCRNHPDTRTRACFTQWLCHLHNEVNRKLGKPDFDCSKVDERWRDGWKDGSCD
# [26] = biological target: T4, Rac GTPase-activating protein 1 (Homo sapiens, UniProt Q9H0H5); test: blockers of MgcRacGAP-driven Rac1 GTP hydrolysis – biochemical, ADP Hunter fluorescence, primary and confirmatory, confirmation (AID 624330); type: functional
# T4 sequence (Q9H0H5 whole entry): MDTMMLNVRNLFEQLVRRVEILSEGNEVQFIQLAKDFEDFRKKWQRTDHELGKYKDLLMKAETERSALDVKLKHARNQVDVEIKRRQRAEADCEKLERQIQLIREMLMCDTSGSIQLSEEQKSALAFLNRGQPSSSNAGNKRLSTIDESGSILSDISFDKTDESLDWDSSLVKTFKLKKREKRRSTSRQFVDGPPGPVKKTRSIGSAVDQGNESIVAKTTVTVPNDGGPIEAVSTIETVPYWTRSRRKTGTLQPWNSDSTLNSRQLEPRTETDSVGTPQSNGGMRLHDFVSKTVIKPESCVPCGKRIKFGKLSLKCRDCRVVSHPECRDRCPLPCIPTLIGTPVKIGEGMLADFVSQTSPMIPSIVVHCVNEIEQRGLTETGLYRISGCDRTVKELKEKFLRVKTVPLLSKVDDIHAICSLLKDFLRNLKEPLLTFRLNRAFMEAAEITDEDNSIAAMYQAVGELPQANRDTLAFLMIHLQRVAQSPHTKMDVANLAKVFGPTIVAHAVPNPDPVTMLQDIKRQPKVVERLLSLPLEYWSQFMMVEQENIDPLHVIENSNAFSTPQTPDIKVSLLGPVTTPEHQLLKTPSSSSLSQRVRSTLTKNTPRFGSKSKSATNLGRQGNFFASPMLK
# HeLa = test: ATP-based viability loss in HeLa cells – cell-based, CellTiter-Glo luminescence, cherry-pick samples, cytotoxicity control for MITF activator project, dose response (AID 540259); type: functional; conditions: Homo sapiens
# HEK293 = test: viability loss in HEK293T cells – cell-based, ATP luminescence, cherry-pick samples, cytotoxicity control, dose response (AID 687005); type: functional; conditions: Homo sapiens;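 further: cells exposed to compound for 48 hours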
# [27] = HEK293 Cytotoxicity Assay Measured in Cell-Based System Using Plate Reader - 7071-01_Inhibitor_Dose_CherryPick_Activity_Set2.; type: functional
structure (smiles),measurement,setting,value
O=c1c(OC2OC(CO)C(O)C(O)C2OC2OC(CO)C(O)C(O)C2O)c(-c2ccc(O)cc2)oc2cc(O)cc(O)c12 (centres undefined),IC50,[1],83.3 µM (inactive)
same,IC50,[2],38.8 µM (inactive)
same,IC50,[3],20.9 µM (inactive)
Cc1nnsc1NC(=O)OCc1ccc(C(C)(C)C)cc1,IC50,[4],10.4 µM (inactive)
Cc1ccc2nc(-c3ccc4c(c3)OCCO4)cn2c1,AC50,[5],1.27 µM (active)
same,IC50,[6],> 80 µM (inactive)
same,AC50,[7],0.366 µM (active)
same,AC50,[8],0.527 µM (active)
same,AC50,[9],2.21 µM (active)
same,AC50,[10],2.18 µM (active)
same,AC50,[11],2.56 µM (active)
Cc1nc2c(-c3ccccc3)cnn2c(N)c1-c1ccccc1,EC50,[12],< 0.16 µM (active)
same,CC50,[13],17.2 µM (active)
same,IC50,[4],> 9.5 µM (active)
Nc1cc(C2CCCC2)nn1-c1ccccc1,EC50,[14],> 91.2 µM (inactive)
same,EC50,[15],7.02 µM (active)
same,EC50,[16],> 91.2 µM (inactive)
same,EC50,[17],0.13 µM (active)
same,EC50,H4,6.8 µM (active)
Cc1ccc(-c2csc(NC3OC(=O)c4ccccc43)n2)cc1 (centres undefined),AC50,[18],13 µM (active)
same,AC50,[19],33.7 µM (active)
same,AC50,Paired box protein Pax-8,7.58 µM (active)
same,AC50,[20],0.0641 µM (active)
same,AC50,[21],17.3 µM (active)
same,AC50,[22],23.1 µM (active)
same,AC50,[23],28.3 µM (active)
C(=N\Nc1nc2ccccc2[nH]1)/c1c[nH]c2ccccc12,CC50,[24],81.9 µM (active)
same,IC50,[1],34.8 µM (inactive)
same,AC50,[25],0.309 µM (active)
same,IC50,[26],35.8 µM (active)
same,AC50,HeLa,40 µM (active)
same,IC50,[2],32.2 µM (inactive)
same,IC50,[3],11.7 µM (inactive)
C[C@@H]1CCCCO[C@@H](CN(C)S(=O)(=O)c2ccccc2)[C@H](C)CN([C@@H](C)CO)C(=O)c2cc(NC(=O)Nc3ccc(F)cc3)ccc2O1,AC50,HEK293,21.6 µM (active)
same,AC50,[27],21.6 µM (active)
O=C(C[C@H]1CC[C@@H]2[C@H](COC[C@@H](O)CN2C(=O)c2cnccn2)O1)NCc1ccc(Oc2ccccc2)cc1,AC50,HEK293,35.7 µM (active)
same,AC50,[27],35.7 µM (active)
COc1ccc(/N=C/c2nc(-c3ccco3)oc2O)cc1,EC50,[14],> 91.2 µM (inactive)
same,EC50,[16],> 91.2 µM (inactive)
